Experiment: Steady-state plasma pharmacokinetics after oral dosing for 5 days
Type: in vivo, BALB/c nu/nu mice
Protocol: Pharmacokinetic studies were performed in 6–8-week-old female BALB/c nu/nu mice (Charles River, Sulzfeld, Germany). […] Parent compounds and metabolites M-2 and M-5 were analyzed in plasma samples using validated bioanalytical liquid chromatography-tandem mass spectrometry (LC-MS/MS) methods according to an experimental protocol described earlier. PK parameters, namely the AUC(0–24)ss and Cmax, were calculated from plasma concentrations using a non-compartmental analysis.

[1] = after oral regorafenib 10 mg/kg/day for 5 days, total = molar sum of regorafenib, M-2, M-5

| Compound | AUC(0–24)ss (percent of total) [1] | AUC(0–24)ss (percent of total) (after oral sorafenib tosylate 30 mg/kg/day for 5 days, total = molar sum of sorafenib and M-2) |
| --- | --- | --- |
| CNC(=O)c1cc(Oc2ccc(NC(=O)Nc3ccc(Cl)c(C(F)(F)F)c3)c(F)c2)cc[n+]1[O-] [M-2] | 9% of total | 1% of total |
| NC(=O)c1cc(Oc2ccc(NC(=O)Nc3ccc(Cl)c(C(F)(F)F)c3)c(F)c2)cc[n+]1[O-] [M-5] | 1% of total |  |

Reference: article PMC5739799 (Oncotarget, 2017)
